Test results reported in patent US20230332237A1, “Molecular Biomarkers for Predicting Patient Response to Steroid Therapy” (Florida State University Research Foundation, Inc., priority 2022, published 2023).

Key:
IGF1 = settings: treatment with prednisolone; literature refs 23, 24; cited from earlier work
IGFBP1 = settings: treatment with prednisolone; literature refs 23, 24; cited from earlier work
IGFBP2 = settings: treatment with prednisolone; literature refs 23, 24; cited from earlier work
[1] = tested on: steroid sensitive keloid fibroblasts; experiment: RNA-seq differential gene expression in steroid sensitive keloid fibroblasts following TA treatment; format: cell-based, human; settings: 10 μM TA for 96 hrs vs DMSO, Padj≤0.05
Text: (§1) Culture of keloid-derived primary fibroblasts. Surgically excised keloid and normal skin explants were obtained from patients under Florida State University institutional review board guidelines (Approved by the Human Subjects Committee (HSC) of the Florida State University Institutional Review Board; HSC numbers: 2016.19175 and 2017.22173). The explants were cut into small pieces, digested with trypsin, and washed with and cultured in Dulbecco's Modified Eagle Medium containing 10% fetal bovine serum and antibiotic/antimycotic solution maintained at 37.8° C. (98.68° F.) and 5% carbon dioxide. Outgrowth of only primary dermal fibroblasts occurred under our culture conditions, and these were recovered by trypsinization for use in experiments at low passage. The keloid fibroblasts are morphologically identical to commercially obtained normal primary human dermal fibroblasts (HDF; Cell Applications, Inc., San Diego, CA) used as our normal controls. […]
(§2) RNA extraction. […] The quality and quantity of each RNA sample was measured by Tapestation (Agilent). […]
(§3) RNA-seq. […] The RNA-seq libraries were sequenced on a NovaSeq 6000 sequencer (Illumina) to obtain 2×100 or 2×150-base reads. […] FASTQC was used to filter out reads of low to moderate quality. Paired-end reads were mapped to the GRCh38 reference genome using Salmon (28). The average mapped reads were 323M reads per sample and average mapped rate was 94.8%. […]

[2] = tested on: steroid resistant keloid fibroblasts; experiment: RNA-seq differential gene expression in steroid resistant keloid fibroblasts following TA treatment; format: cell-based, human; settings: 10 μM TA for 96 hrs vs DMSO, Padj≤0.05
Text: as §1, §2, §3

Row | SMILES | serum IGF1 concentration (IGF1) | IGFBP1 (IGFBP1) | IGFBP2 (IGFBP2) | genes downregulated after TA treatment [1] | genes upregulated after TA treatment [1] | genes downregulated after TA treatment [2] | genes upregulated after TA treatment [2]
1 | C[C@]12C=CC(=O)C=C1CC[C@@H]1[C@@H]2[C@@H](O)C[C@@]2(C)[C@H]1CC[C@]2(O)C(=O)CO [prednisolone] | increases | reduces | reduces | – | – | – | –
2 | CC1(C)O[C@@H]2C[C@H]3[C@@H]4CCC5=CC(=O)C=C[C@]5(C)[C@@]4(F)[C@@H](O)C[C@]3(C)[C@]2(C(=O)CO)O1 [TA, Triamcinolone Acetonide] | – | – | – | 521 | 526 | 106 | 131
